Assay results published in patent EP0031926A2, “Radioimmunological set for the determination of progesterone and its use, and radioimmunoassay method for the determination of progesterone” (HOECHST AKTIENGESELLSCHAFT, priority 1979, dated 1981).

Tested on: gegen Progesteron-11α-bernsteinsäurehalbester-ovalbumin erzeugten Antiserum
Experiment: Cross-reactivity of steroids in the radioimmunoassay for progesterone (competitive binding, 125I-labelled progesterone-3 tracer, charcoal separation)
Design: species or system Kaninchen
Details: relative to Progesteron = 100; acid buffer; heterologous system (11α-protein conjugate antiserum, 3-iodinated tracer)
Description: Die vorliegende Erfindung stellt ein Radioimmunobesteck und eine Bestimmungsmethode für Progesteron zur Verfügung, welche dadurch gekennzeichnet ist, daß man in saurem Medium, vorzugsweise einem sauren Puffer, eine Flüssigkeitsprobe mit einer bekannten Menge von gegen ein Progesteron/Proteinkonjugat erzeugten Antikörpern, wobei das Protein über eine Brückengruppe in 11-Stellung, im allgemeinen 11α-Stellung, an das Progesteron gebunden ist, und mit einer bekannten Menge eines Progesteronderivats,das in 3-Stellung über eine Brücke mit einem Rest substituiert ist, welcher ein oder mehrere Atome eines Jodradioisotops trägt, inkubiert, . das in dem entstandenen Antikörper /Antigenkomplex gebundene Steroid von der freien Steroidkomnonente abtrennt und deren Radioaktivität oder die des Antikörper/Antigenkomplexes mißt. Im allgemeinen wird das Antiserum zuletzt zugesetzt, und der Indikator wird vorzugsweise zum Standard bzw. zur Probe gegeben.
Wie oben erwähnt ist die eigentliche Bestimmung eine herkömmliche radioimmunologische Bestimmung mit Bindungskonkurrenz, d.h. sie ist abhängig von der Konkurrenz zwischen unmarkiertem Progesteron und einem radiojodierten Progesteronderivat um die Bindungsstellen eines progesteronspezifischen Antikörpers. Der an den Antikörper gebundene Anteil an jodiertem Progesteron ist der Menge des vorhandenen unmarkierten Progesterons umgekehrt proportional. Dieser Anteil wird dadurch gemessen, daß man die gebundenen und freien Komponenten trennt, im allgemeinen durch Adsorption der letzteren, und die Radioaktivität der einen oder der anderen mißt.
Die bevorzugte Reagenzienkombination für die erfindungsgemäße Bestimmungsmethode besteht aus einem gegen Progesteron-11α-bernsteinsäurehalbester-ovalbumin erzeugten Antiserum und Progesteron-3-(0-carboxymethyl)-oxim-[^125J]-jodhistamin. J]-jodhistamin.
Die Bestimmung wird auf herkömmliche Weise durchgeführt, beispielsweise erstellt man einen Satz Röhrchen, die jeweils ein Aliquot an 3-jodiertem Indikator und entweder eine bekannte Menge einer Standardprogestercnlösung in einem geeigneten, von Steroid befreiten Verdünnungsmittel oder eine unbekannte Probe enthalten. Vorzugsweise gibt man den Indikator zum Standard oder zur Probe. Ein Aliquot des Antiserums wird in jedes Röhrchen gegeben, dessen Inhalt gut vermischt und stehengelassen wird, vorzugsweise bei 0 - 4°C. Die Bestimmung läßt sich jedoch auch bei höheren Temperaturen, z.B. Raumtemperatur oder 37°C, durchführen. Nach Ablauf einer gewissen Zeit, vorzugsweise 21/2 - 5 Stunden, wird jedem Röhrchen ein Aliquot eines Trennmittels zugesetzt. Das Trennmittel ist beispielsweise ein zweiter Antikörper oder (NH4)2S04, jedoch vorzugsweise Aktivkohle. Man läßt dem Trennmittel genügend Zeit, um das freie Steroid zu binden, trennt es vom Rest des Röhrcheninhalts, im Falle von Aktivkohle vorzugsweise durch Zentrifugieren, und bestimmt die Radioaktivität der festen oder flüssigen Phase. Im Falle von Aktivkohle als Adsorptionsmittel wird vorzugsweise die feste Phase, d.h. die Radioaktivität des freien (nichtantikörpergebundenen) jodierten Indikators gemessen.Andernfalls kann man eine Probe der überstehenden flüssigen Phase nehmen und zählen. Man erstellt eine Standardkurve, und die in der Probe vorliegende Menge Progesteron kann aus der Kurve interpoliert werden.
Die Kreuzreaktivität verschiedener Steroide bei der erfindungsgemäßen Bestimmungsmethode ist unten angegeben.

SMILES | % Kreuzreaktivität
C[C@]12CC[C@H]3[C@@H](CCC4=CC(=O)CC[C@@]43C)[C@@H]1CC[C@@H]2C(=O)CO [Desoxycorticosteron] | 0,01%
CC(=O)[C@H]1CC[C@H]2[C@@H]3CC[C@@H]4C[C@H](O)CC[C@]4(C)[C@H]3CC[C@]12C [5ß-Pregnan-3α-01-20-on] | 8,0%
CC(=O)[C@H]1CC[C@H]2[C@@H]3CC=C4C[C@@H](O)CC[C@]4(C)[C@H]3CC[C@]12C [Pregnenolon] | 10,5%
CC(=O)[C@@]1(O)CC[C@H]2[C@@H]3CCC4=CC(=O)CC[C@]4(C)[C@H]3CC[C@@]21C [17α-Hydroxyprogesteron] | 1,3%
CC(=O)[C@H]1CC[C@H]2[C@@H]3CC=C4C[C@@H](OS(=O)(=O)O)CC[C@]4(C)[C@H]3CC[C@]12C [Pregnenolonsulfat] | 0,4%
CC(=O)[C@H]1CC[C@H]2[C@@H]3CC[C@H]4CC(=O)CC[C@]4(C)[C@H]3CC[C@]12C [5α-Pregnan-3,20-dion] | 6,0%
C[C@H](O)[C@H]1CC[C@H]2[C@@H]3CC[C@@H]4C[C@H](O)CC[C@]4(C)[C@H]3CC[C@]12C [5ß-Pregnan-3α, 20α-diol] | 0,7%
CC(=O)[C@H]1CC[C@H]2[C@@H]3CC=C4C[C@@H](O[C@@H]5O[C@H](C(=O)O)[C@@H](O)[C@H](O)[C@H]5O)CC[C@]4(C)[C@H]3CC[C@]12C [Pregnenolonglucuronid] | 10,0%
C[C@H](O)[C@H]1CC[C@H]2[C@@H]3CCC4=CC(=O)CC[C@]4(C)[C@H]3CC[C@]12C [20α-Hydroxyprogesteron] | 0,25%
CC(=O)[C@H]1CC[C@H]2[C@@H]3CCC4=CC(=O)CC[C@]4(C)[C@H]3CC[C@]12C [Progesteron] | 100%
C[C@]12C[C@H](O)[C@H]3[C@@H](CCC4=CC(=O)CC[C@@]43C)[C@@H]1CC[C@@H]2C(=O)CO [Corticosteron] | 2,7%
